Non-standard residues stand in square brackets, D forms with d. Residues, ends and D or L forms follow the SMILES beside them.
Legend:
[1] = tested on: primary patient-derived MLL-rearranged leukemia cells in NSG mice; experiment: Patient-derived MLL-rearranged leukemia xenograft, treatment upon peripheral leukemia; assay type: in vivo, mouse; conditions: vs vehicle
Protocol: All mouse experiments were carried out in accordance with the Memorial Sloan Kettering Institutional Animal Care and Use Committee. For toxicity studies, female C57BL/6J mice (The Jackson Laboratory, Bar Harbor, Maine, USA) were treated with MYBMIM peptide suspended in PBS and administered daily through intraperitoneal injection at a dose of 25 mg/kg for a total of 7 days. Mice were sacrificed at the end of treatment for hematologic, biochemical and histologic analyses. For pharmacokinetic studies, C57BL/6J mice (The Jackson Laboratory, Bar Harbor, Maine, USA) were treated with a single IP injection of 25 mg/kg BIO-MYBMIM, and blood plasma was collected 30 min, 2 h, 4 h, and 24 h post-injection. Quantification of BIO-MYBMIM was measured using the Quant-Tag Biotin kit (Vector Labs, cat. # BDK-2000) following the manufacturer instructions. For patient-derived xenografts, two hundred thousand primary AML MLL-rearranged leukemia cells were suspended in […] of PBS and transplanted via tail vein injection into 8-week-old sublethally irradiated (200 rad) female NOD.Cg-Prkdc(scid)Il2rg(tm1Wjl)/SzJ mice (The Jackson Laboratory, Bar Harbor, Maine, USA). Recipient mice were maintained on antibiotic supplementation in chow (0.025% trimethoprim, 0.124% sulfamethoxazole, Sulfatrim). Three days after transplant, mice were randomly assigned to experimental treatment groups. […]

MV411 and MOLM-13 cells = experiment: Western blot of BCL2 protein; assay type: cell-based, human; conditions: 20 μM, 6 hours and 24 hours
Protocol: Cells were lysed in RIPA buffer (Thermo Fisher) supplemented with a protease inhibitor mix comprised of AEBSF (0.5 mM concentration, Santa Cruz, SC-202041B), Bestatin (0.01 mM, Fisher/Alfa Aesar, J61106-MD), Leupeptin (0.1 mM, Santa Cruz, SC-295358B), and Pepstatin (0.001 mM, Santa Cruz, SC-45036A). Lysates were mechanically disrupted using Covaris S220 adaptive focused sonicator, according to the manufacturer’s instructions (Covaris, Woburn, CA). Lysates were cleared by centrifugation for 15 min at 18,000 × g and clarified lysates were quantified using the bicinchoninic acid assay (Pierce). Clarified lysates (20 μg of protein) were resolved using sodium dodecyl sulfate-polyacrylamide gel electrophoresis, and electroeluted using the Immobilon FL PVDF membranes (Millipore, Billerica, MA, USA). Membranes were blocked using the Odyssey Blocking buffer (Li-Cor, Lincoln, Nebraska, USA). […] Blotted membranes were visualized using secondary antibodies conjugated to IRDye 800CW or IRDye 680RD (Goat anti-rabbit, 1:15,000, and goat anti-mouse, 1:15,000) and the Odyssey CLx fluorescence scanner, according to manufacturer’s instructions (Li-Cor, Lincoln, Nebraska, USA).
Supplementary Figure 9. BCL2 expression as measured by Western blot in MV411 and […]
ImageJ. BCL2 protein expression is quantified as a fraction of its respective PBS control […]

CBP/P300 = experiment: Streptavidin affinity purification of CBP/P300 from MV-411 cell extracts with BIO-MYBMIM, with peptide competition; assay type: binding, human; conditions: 20-fold molar excess free peptide, MV-411 extracts, western blot
Protocol: Cells were lysed in RIPA buffer (Thermo Fisher) supplemented with a protease inhibitor mix comprised of AEBSF (0.5 mM concentration, Santa Cruz, SC-202041B), Bestatin (0.01 mM, Fisher/Alfa Aesar, J61106-MD), Leupeptin (0.1 mM, Santa Cruz, SC-295358B), and Pepstatin (0.001 mM, Santa Cruz, SC-45036A). Lysates were mechanically disrupted using Covaris S220 adaptive focused sonicator, according to the manufacturer’s instructions (Covaris, Woburn, CA). Lysates were cleared by centrifugation for 15 min at 18,000 × g and clarified lysates were quantified using the bicinchoninic acid assay (Pierce). Clarified lysates (20 μg of protein) were resolved using sodium dodecyl sulfate-polyacrylamide gel electrophoresis, and electroeluted using the Immobilon FL PVDF membranes (Millipore, Billerica, MA, USA). Membranes were blocked using the Odyssey Blocking buffer (Li-Cor, Lincoln, Nebraska, USA). The following primary antibodies were used as indicated: anti-MYB (1:1000, 05-175, Millipore), anti-CBP (1:1000, PA1-847, Invitrogen), anti-BCL2 (1:1000, 200-401-222, Rockland), anti-β actin (1:1000, 8H10D10, Cell Signaling). […] Blotted membranes were visualized using secondary antibodies conjugated to IRDye 800CW or IRDye 680RD (Goat anti-rabbit, 1:15,000, and goat anti-mouse, 1:15,000) and the Odyssey CLx fluorescence scanner, according to manufacturer’s instructions (Li-Cor, Lincoln, Nebraska, USA). […]

MOLM-13 cells = experiment: RNA-seq transcriptome profiling; assay type: cell-based, human; conditions: MOLM13 cells, 20 µM, 6 h
Protocol: Reads were quality and adapter trimmed using “trim_galore” before aligning to human assembly hg19 with STAR v2.5 using the default parameters. Coverage and post-alignment quality were assessed using the Picard tool CollectRNASeqMetrics (http://broadinstitute.github.io/picard/). Read count tables were created using HTSeq v0.6.1. Normalization and expression dynamics were evaluated with DESeq2 using the default parameters.

CC[C@@H](C)[C@@H](NC(=O)[C@@H](CCCCN)NC(=O)[C@@H](CCC(=O)O)NC(=O)[C@@H](CC(C)C)NC(=O)[C@@H](CCC(=O)O)NC(=O)[C@@H](CC(C)C)NC(=O)[C@@H](CC(C)C)NC(=O)[C@@H](CC(C)C)NC(=O)[C@@H](CCSC)NC(=O)[C@@H](CO)NC(=O)[C@H](NC(=O)[C@@H](CCC(=O)O)NC(=O)[C@@H](CC(N)=O)NC(=O)[C@@H](CCC(=O)O)NC(=O)[C@@H](CC(C)C)NC(=O)[C@@H](CCCCN)NC(C)=O)[C@H](C)O)C(=O)N[C@H](CCCNC(=N)N)C(=O)N[C@H](CCCCN)C(=O)NCC(=O)NCC(=O)N[C@H](CCCNC(=N)N)C(=O)N[C@H](CCCNC(=N)N)C(=O)N[C@H](CCCNC(=N)N)C(=O)N[C@H](CCC(N)=O)C(=O)N[C@H](CCCNC(=N)N)C(=O)N[C@H](CCCNC(=N)N)C(=O)N[C@H](CCCCN)C(=O)N[C@H](CCCCN)C(=O)N[C@H](CCCNC(=N)N)C(=O)NCC(=O)N[C@H](Cc1ccc(O)cc1)C(N)=O [MYBMIM] (Ac-[dK][dL][dE][dN][dE][dT][dS][dM][dL][dL][dL][dE][dL][dE][dK][dI][dR][dK]GG[dR][dR][dR][dQ][dR][dR][dK][dK][dR]G[dY]-NH2)
Leukemia burden by bone marrow analysis of human leukemia cells (hCD45) ([1]; NSG mice, 25 mg/kg IP twice daily, 21 days, 6 mice, p = 1.2e-4): significant reduction in leukemia burden
Levels of BCL2 in residual leukemia cells in the bone marrow ([1]; quantitative immunofluorescence, p = 0.3): minimal reduction
BCL2 protein abundance (MV411 and MOLM-13 cells): significant albeit modest decrease
Displacement of cellular CBP/P300 from BIO-MYBMIM beads by free peptide (CBP/P300): displacement of cellular CBP/P300
BCL2, MYC, GFI1, MTL5, IKZF1 gene expression (MOLM-13 cells): significant downregulation
